SMILES strings stand for the structures.

T1 sequence (P43250 whole entry): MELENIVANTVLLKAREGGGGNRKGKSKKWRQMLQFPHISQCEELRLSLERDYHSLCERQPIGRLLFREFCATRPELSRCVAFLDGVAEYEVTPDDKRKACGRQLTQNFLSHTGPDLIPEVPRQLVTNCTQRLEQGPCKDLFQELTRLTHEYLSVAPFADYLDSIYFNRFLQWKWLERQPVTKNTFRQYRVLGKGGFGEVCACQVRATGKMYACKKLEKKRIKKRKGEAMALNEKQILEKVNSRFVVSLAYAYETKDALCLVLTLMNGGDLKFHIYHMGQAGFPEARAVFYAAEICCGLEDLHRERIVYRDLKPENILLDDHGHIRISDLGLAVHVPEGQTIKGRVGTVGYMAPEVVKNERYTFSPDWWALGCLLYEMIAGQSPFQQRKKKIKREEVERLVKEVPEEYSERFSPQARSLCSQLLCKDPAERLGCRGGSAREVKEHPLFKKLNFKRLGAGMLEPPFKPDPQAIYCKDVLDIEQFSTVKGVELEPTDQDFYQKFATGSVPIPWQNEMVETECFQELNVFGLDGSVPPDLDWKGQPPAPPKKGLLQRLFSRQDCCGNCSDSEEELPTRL

This test has as its target T1, GRK6, recombinant full-length GST-tagged human protein (Homo sapiens, UniProt P43250).
T1 construct: Enzyme: 20 nM GRK6, recombinant full-length GST-tagged human protein; GST
The test can be described thus: GRK6 assay, IC50 determination (8-point concentration-response). It counts as biochemical. The note with it: Series 1 (Table 11); 20 nM GRK6, ATP 12 μM (Km), Peptide 216 1 μM, incubation 7 h. How it is done: The following assay conditions were used.
Buffer: 50 mM TRIS-HCl, pH 7.5, 5 mM MgCl2, 2 mM DTT, 0.01% Triton X-100, 10 μM Na3VO4, 10 μM b-GP, 1% DMSO
Enzyme: 20 nM GRK6, recombinant full-length GST-tagged human protein
Peptide substrate (Peptide 216): 1 μM
One hundred two compounds (1-1-1-102) were further characterized by determining IC50 values in a GRK6 assay. This screen has been previously described in WO 2013/063458, which is incorporated by reference in its entirety herein. Briefly, the following activities were performed: 8-point concentration-response determinations in singlicate wells (top concentration=60 μM, 3-fold dilution steps); Repeat tests for QC failed or inconclusive compounds; and Repeat tests (titrate down) for compounds with >50% inhibition at all tested concentrations.
Twelve compounds (2-1-2-12) were further characterized by determining the IC50 values in a GRK6 assay. This screen has been previously described in WO 2013/063458, which is incorporated by reference in its entirety herein. Specific activities were performed as described above (Example 18).
Thirty-six compounds (3-1-3-36) were further characterized by determining the IC50 values in a GRK6 assay. This screen has been previously described in WO 2013/063458, which is incorporated by reference in its entirety herein. Specific activities were performed as described above (Example 18).
Fifty-four compounds (4-1-4-54) were further characterized by determining the IC50 values in a GRK6 assay. This screen has been previously described in WO 2013/063458, which is incorporated by reference in its entirety herein. Specific activities were performed as described above (Example 18).
Turning to `O=C(O)CSc1nnc(-c2ccc(-c3ccc4[nH]cc(-c5ccccc5)c4c3)o2)[nH]1` [Compound 1-1], the IC50 (usually the concentration that inhibits the measured activity by half) was 0.079 µM.
With `O=C(O)CSc1nnc(-c2ccc(-c3cccc(OCc4cccc([N+](=O)[O-])c4)c3)o2)[nH]1` [Compound 1-2] the figure was 0.126 µM; with `O=C(O)CSc1nnc(-c2ccc(-c3ccc4[nH]c5ccccc5c4c3)o2)[nH]1` [Compound 1-3], 0.131 µM; with `O=C(O)CSc1nnc(-c2ccc(-c3ccc4[nH]c(-c5ccccc5)cc4c3)o2)[nH]1` [Compound 1-4], 0.133 µM.
With `O=C(O)CSc1nnc(-c2ccc(-c3cccc4[nH]c(-c5ccccc5)cc34)o2)[nH]1` [Compound 1-5], the half-inhibitory concentration (IC50) turned out to be 0.137 µM.
Take `N#Cc1cccc(COc2cccc(-c3ccc(-c4nnc(SCC(=O)O)[nH]4)o3)c2)c1` [Compound 1-6]: the IC50 worked out at 0.162 µM.
Take `N#Cc1ccc(COc2cccc(-c3ccc(-c4nnc(SCC(=O)O)[nH]4)o3)c2)cc1` [Compound 1-7]: the IC50 was 0.167 µM.
For `COc1cc(Cl)cc(-c2ccc(-c3nnc(SCC(=O)O)[nH]3)o2)c1` [Compound 1-8], the 50% inhibitory concentration (IC50) came out at 0.17 µM.
`O=C(O)CSc1nnc(-c2ccc(-c3ccc(Cl)c(Cl)c3)o2)[nH]1` [Compound 1-9]: the IC50 was 0.175 µM.
Take `O=C(O)CSc1nnc(-c2ccc(-c3cc(Cl)cc(Cl)c3)o2)[nH]1` [Compound 1-10]: the IC50 worked out at 0.186 µM.
With `COc1ccc2cc(C#Cc3ccc(-c4nnc(SCC(=O)O)[nH]4)o3)ccc2c1` [Compound 1-11], the half-maximal inhibitory concentration (IC50) is 0.187 µM.
Take `Cn1c2ccccc2c2ccc(-c3ccc(-c4nnc(SCC(=O)O)[nH]4)o3)cc21` [Compound 1-12]: the half-inhibitory concentration (IC50) came out at 0.189 µM.
With `O=C(O)CSc1nnc(-c2ccc(-c3cccc(OCc4cccc(OC(F)F)c4)c3)o2)[nH]1` [Compound 1-13] the figure was 0.195 µM; with `Cn1ccc2ccc(-c3ccc(-c4nnc(SCC(=O)O)[nH]4)o3)cc21` [Compound 1-14], 0.216 µM; with `O=C(O)CSc1nnc(-c2ccc(-c3cnc4ccccc4c3)o2)[nH]1` [Compound 1-15], 0.234 µM.
Consider `COc1ccc2cc(-c3ccc(-c4nnc(SCC(=O)O)[nH]4)o3)ccc2c1` [Compound 1-16], for which the IC50 was 0.241 µM.
With `COc1ccc(-c2ccc(-c3nnc(SCC(=O)O)[nH]3)o2)cc1C=O` [Compound 1-17], the IC50 amounted to 0.245 µM.
For `N#Cc1ccc2[nH]c(-c3ccc(-c4nnc(SCC(=O)O)[nH]4)o3)cc2c1` [Compound 1-18], the IC50 worked out at 0.25 µM.
Next, `O=C(O)CSc1nnc(-c2ccc(C#Cc3ccc4ccccc4c3)o2)[nH]1` [Compound 1-19, 2-((5-(5-(naphthalen-2-ylethynyl)furan-2-yl)-4H-1,2,4-triazol-3-yl)thio)acetic acid]: 0.259 µM; `O=C(O)CSc1nnc(-c2ccc(-c3cc(Cl)cc(OCc4ccccc4)c3)o2)[nH]1` [Compound 1-20]: 0.26 µM; `O=C(O)CSc1nnc(-c2ccc(-c3cccc(OC(F)(F)F)c3)o2)[nH]1` [Compound 1-21]: 0.265 µM.
With `O=C(O)CSc1nnc(-c2ccc(-c3ccc4cc(-c5ccccc5)[nH]c4c3)o2)[nH]1` [Compound 1-22] the figure was 0.269 µM; with `O=C(O)CSc1nnc(-c2ccc(-c3cccc(OCc4ccccc4)c3)o2)[nH]1` [Compound 1-23], 0.273 µM.
With `O=C(O)CSc1nnc(-c2ccc(-c3cccc(OCc4cccc(Cl)c4)c3)o2)[nH]1` [Compound 1-24], the IC50 was 0.276 µM.
Take `O=C(O)CSc1nnc(-c2ccc(-c3ccc(Oc4ccccc4)cc3)o2)[nH]1` [Compound 1-25]: the IC50 came to 0.284 µM.
For the compound `O=C(O)CSc1nnc(-c2ccc(-c3ccc4sccc4c3)o2)[nH]1` [Compound 1-26], the 50% inhibitory concentration (IC50) was determined as 0.285 µM.
`CCCOc1ccc(-c2ccc(-c3nnc(SCC(=O)O)[nH]3)o2)cc1Cl` [Compound 1-27]: the IC50 is 0.309 µM.
Next, `O=C(O)CSc1nnc(-c2ccc(-c3cc(Cl)ccc3F)o2)[nH]1` [Compound 1-28]: 0.311 µM.

Values taken from patent US9902739B2, “Small molecule inhibitors of G protein coupled receptor 6 kinases polypeptides” (Mayo Foundation for Medical Education and Research, priority 2014, dated 2018).
